From patent US20060217418A1, “Substituted alkyl amido piperidines” (priority 2001, published 2006)

Biological target: T1, rat MCH1 receptor (Rattus norvegicus, UniProt P97639)
T1 construct: operatively linked to DNA encoding the rat MCH1 receptor so as to permit expression thereof; expressed in transfected cells; host or cells: Human embryonic kidney Peak rapid 293 (Peakr293) cells, transient calcium phosphate transfection, membranes
Experiment: Radioligand binding assay at cloned rat MCH1 receptor ([3H]Compound A)
Settings: cloned rat MCH1, Peakr293 cell membranes, 0.08 nM [3H]Compound A, 25° C., 90 minutes; read-out: Ki(MCH-1)

T1 sequence (P97639 whole entry): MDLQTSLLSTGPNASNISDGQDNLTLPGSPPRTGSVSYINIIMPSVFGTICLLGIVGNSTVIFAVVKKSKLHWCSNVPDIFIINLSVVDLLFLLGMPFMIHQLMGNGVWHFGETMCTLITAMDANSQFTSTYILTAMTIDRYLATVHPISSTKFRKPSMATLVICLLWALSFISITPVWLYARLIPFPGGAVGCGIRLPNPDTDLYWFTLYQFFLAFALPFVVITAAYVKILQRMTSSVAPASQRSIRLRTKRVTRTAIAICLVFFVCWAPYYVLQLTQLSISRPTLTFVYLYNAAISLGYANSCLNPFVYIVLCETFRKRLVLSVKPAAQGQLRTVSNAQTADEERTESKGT

SMILES	Ki
Cc1ccc(NC(=O)C(C)C)cc1C1CCN(CCCNC(=O)C2(c3ccc(F)cc3)CCCC2)CC1 [Example 93]	4.9 nM
CCC(=O)Nc1cccc(C2CCN(CCCNC(=O)C(CC)(c3ccccc3)c3ccccc3)CC2)c1 [Example 15, 2,2-DIPHENYL-N-(3-{4-[3-(PROPIONYLAMINO)PHENYL]-1-PIPERIDINYL}PROPYL) BUTANAMIDE]	8.9 nM
CC(C)C(=O)Nc1c(F)cc(F)c(C2CCN(CCCNC(=O)C(c3ccc(F)cc3)c3ccc(F)cc3)CC2)c1F [Example 173, N-{3-[1-(3-{[bis(4-fluorophenyl)acetyl]amino}propyl)-4-piperidinyl]-2,4,6-trifluorophenyl}-2-methylpropanamide]	2.5 nM
CCCC(=O)Nc1cc(C2CCN(CCCNC(=O)C(C)(C)c3ccc(Cl)cc3)CC2)ccc1F [Example 110]	50.4 nM
CCCC(=O)Nc1cccc(C2CCN(CCCNC(=O)C3(c4ccc(Cl)cc4)CCC3)CC2)c1 [Example 106, N-(3-{4-[3-(BUTYRYLAMINO)PHENYL]-1-PIPERIDINYL}PROPYL)-1-(4-CHLOROPHENYL) CYCLOBUTANECARBOXAMIDE]	19 nM
CCC(=O)Nc1cccc(C2CCN(CCCNC(=O)C(C)(C)c3ccc(Cl)cc3)CC2)c1 [Example 7]	7.9 nM
CC(C(=O)NCCCN1CCC(c2cccc(NC(=O)C3CC3)c2)CC1)c1ccc(Cl)cc1 (stereo not shown) [Example 116, N-{3-[1-(3-{[2-(4-CHLOROPHENYL)PROPANOYL]AMINO}PROPYL)-4-PIPERIDINYL] PHENYL}CYCLOPROPANECARBOXAMIDE]	18.9 nM
CCCC(=O)Nc1cc(C2CCN(CCCNC(=O)C(c3ccccc3)c3ccccc3)CC2)ccc1F [Example 65]	4.9 nM
CCCC(=O)Nc1cccc(C2CCN(CCCNC(=O)C3(c4ccc(Cl)cc4)CC3)CC2)c1 [Example 69, N-(3-{4-[3-(butyrylamino)phenyl]-1-piperidinyl}propyl)-1-(4-chlorophenyl)cyclopropane carboxamide]	39.9 nM
CC(C)C(=O)Nc1ccc(F)c(C2CCN(CCCNC(=O)C3(c4ccc(Cl)cc4)CCCCC3)CC2)c1 [Example 130]	2.6 nM
CCSC(C(=O)NCCCN1CCC(c2cccc(NC(=O)C(C)C)c2)CC1)(c1ccccc1)c1ccccc1 [Example 16, N-{3-[1-(3{[(ETHYLSULFANYL)(DIPHENYL)ACETYL]AMINO}PROPYL)-4-PIPERIDINYL] PHENYL}-2-METHYLPROPANAMIDE]	1040 nM
CC(C)C(=O)Nc1ccc(F)c(C2CCN(CCCNC(=O)C(F)(F)c3ccccc3)CC2)c1 [Example 136]	48.7 nM
CC(C)OC(=O)Nc1cccc(C2CCN(CCCNC(=O)C(c3ccccc3)c3ccccc3)CC2)c1 [Example 144, Isopropyl 3-(1-{3-[(Diphenylacetyl)Amino]Propyl}-4-Piperidinyl) Phenylcarbamate]	33.2 nM
CC(C)OC(=O)Nc1cccc(C2CCN(CCCNC(=O)C(C)(C)c3ccc(Cl)cc3)CC2)c1 [Example 142, Isopropyl 3-[1-(3-{[2-(4-Chlorophenyl)-2-Methylpropanoyl]Amino}Propyl)-4-Piperidinyl]Phenyl carbamate]	77.4 nM
CCN(CCCN1CCC(c2cccc(NC(=O)C(C)C)c2)CC1)C(=O)C(c1ccccc1)c1ccccc1 [Example 126]	3 nM
CC(C)C(=O)Nc1cc(C2CCN(CCCNC(=O)C(c3ccccc3)c3ccccc3)CC2)ccc1F [Example 56]	4.5 nM
CC(C)C(=O)Nc1cccc(C2CCN(CCCNC(=O)C(c3ccccc3)(c3ccccc3)c3ccccc3)CC2)n1 [Example 82]	8.6 nM
CCCC(=O)Nc1cc(C2CCN(CCCNC(=O)C(c3ccc(C)cc3)c3ccc(C)cc3)CC2)ccc1F [Example 109]	4.7 nM
Nc1cccc(C2CCN(CCCNC(=O)C(c3ccccc3)c3ccccc3)CC2)c1 [Example 152]	115 nM
CC[C@H](C(=O)NCCCN1CCC(c2cc(NC(=O)C(C)C)ccc2C)CC1)c1ccccc1 [Example 163, (2S)-N-(3-{4-[5-(isobutyrylamino)-2-methylphenyl]-1-piperidinyl}propyl)-2-phenylbutanamide]	20 nM
CCCC(=O)Nc1cccc(C2CCN(CCCNC(=O)C(C)c3ccc(Cl)cc3)CC2)c1 (stereo not shown) [Example 77, N-{3-[1-(3-{[2-(4-CHLOROPHENYL)PROPANOYL]AMINO}PROPYL)-4-PIPERIDINYL] PHENYL}BUTANAMIDE]	30.7 nM
CC(C)C(=O)Nc1cccc(C2CCN(CCCNC(=O)C(c3ccc(Cl)cc3)c3ccc(Cl)cc3)CC2)n1 [Example 50]	1.9 nM
CC(C)C(=O)Nc1cccc(C2CCN(CCCNC(=O)C3(c4ccc(F)cc4Cl)CCCCC3)CC2)c1 [Example 138]	10.2 nM

SMILES	Ki
O=C(Nc1cccc(C2CCN(CCCNC(=O)C(c3ccc(F)cc3)c3ccc(F)cc3)CC2)c1)C1CC1 [Example 120, N-{3-[1-(3-{[2,2-BIS(4-FLUOROPHENYL)ACETYL]AMINO}PROPYL)-4-PIPERIDINYL] PHENYL}CYCLOPROPANECARBOXAMIDE]	0.4 nM
CC(C)(C(=O)NCCCN1CCC(c2cccc(NC(=O)C3CC3)c2)CC1)c1ccc(Cl)cc1 [Example 115]	6.9 nM
COc1ccc(NC(=O)C(C)C)cc1C1CCN(CCCNC(=O)C(c2ccccc2)c2ccccc2)CC1 [Example 20]	90.5 nM
CCCC(=O)Nc1cccc(C2CCN(CCCNC(=O)C(c3ccc(Cl)cc3)c3ccc(Cl)cc3)CC2)c1 [Example 53, N-{3-[1-(3-{[2,2-BIS(4-CHLOROPHENYL)ACETYL]AMINO}PROPYL)-4-PIPERIDINYL] PHENYL}BUTANAMIDE]	1.1 nM
CC(C)C(=O)Nc1cc(C2CCN(CCCNC(=O)C(C)c3ccc(F)cc3)CC2)ccc1F (stereo not shown) [Example 46]	44.5 nM
Cc1ccc(NC(=O)C(C)C)cc1C1CCN(CCCNC(=O)C2(c3ccc(Cl)cc3)CCCC2)CC1 [Example 81]	3.2 nM
O=C(Nc1cccc(C2CCN(CCCNC(=O)C(c3ccccc3)(c3ccccc3)c3ccccc3)CC2)c1)C1CC1 [Example 114]	4 nM
O=C(CC(c1ccccc1)c1ccccc1)NCCCN1CCC(c2cccc(NC(=O)C3CC3)c2)CC1 [Example 151, N-[3-(1-{3-[(3,3-DIPHENYLPROPANOYL)AMINO]PROPYL}-4-PIPERIDINYL)PHENYL] CYCLOPROPANECARBOXAMIDE]	62 nM
CC(=O)Nc1cccc(C2CCN(CCCNC(=O)C3(c4ccc(Cl)cc4)CCCC3)CC2)c1 [Example 78, N-(3-{4-[3-(ACETYLAMINO)PHENYL]-1-PIPERIDINYL}PROPYL)-1-(4-CHLOROPHENYL) CYCLOPENTANECARBOXAMIDE]	6.7 nM
Cc1ccc(NC(=O)C(C)C)cc1C1CCN(CCCNC(=O)[C@@H](C)c2ccc(F)cc2)CC1 [Example 168, (2S)-2-(4-fluorophenyl)-N-(3-{4-[5-(isobutyrylamino)-2-methylphenyl]-1-piperidinyl}propyl) propanamide]	12.1 nM
COC(C(=O)NCCCN1CCC(c2cccc(NC(=O)C(C)C)c2)CC1)c1ccc(Cl)c(Cl)c1 (stereo not shown) [Example 39]	32.2 nM
CC(C)C(=O)Nc1cncc(C2CCN(CCCNC(=O)C(c3ccccc3)c3ccccc3)CC2)c1 [Example 170, N-[5-(1-{3-[(diphenylacetyl)amino]propyl}-4-piperidinyl)-3-pyridinyl]-2-methyl propanamide]	19.1 nM
CC(C)C(=O)Nc1cccc(C2CCN(CCCNC(=O)C(C)(C)c3ccc(Cl)cc3)CC2)n1 [Example 88]	23 nM
O=C(Nc1cccc(C2CCN(CCCNC(=O)C3(c4ccc(Cl)cc4Cl)CC3)CC2)c1)C1CC1 [Example 117, N-[3-(4-{3-[(CYCLOPROPYLCARBONYL)AMINO]PHENYL}-1-PIPERIDINYL) PROPYL]-1-(2,4-DICHLOROPHENYL)CYCLOPROPANECARBOXAMIDE]	17.9 nM
CC(C)C(=O)Nc1cccc(C2CCN(CCCNC(=O)C3(c4ccc(F)cc4)CCCC3)CC2)c1 [Example 36, 1-(4-FLUOROPHENYL)-N-(3-{4-[3-(ISOBUTYRYLAMINO)PHENYL]-1-PIPERIDINYL} PROPYL)CYCLOPENTANECARBOXAMIDE]	11 nM
CCCC(=O)Nc1ccc(OC)c(C2CCN(CCCNC(=O)C(c3ccc(F)cc3)c3ccc(F)cc3)CC2)c1 [Example 26]	18.7 nM
CC(C)C(=O)Nc1cccc(C2CCN(CCCNC(=O)C3(c4ccc(Cl)cc4)CCC3)CC2)c1 [Example 43, 1-(4-CHLOROPHENYL)-N-(3-{4-[3-(ISOBUTYRYLAMINO)PHENYL]-1-PIPERIDINYL} PROPYL)CYCLOBUTANECARBOXAMIDE]	13.7 nM
Cc1ccc(NC(=O)C(C)C)cc1C1CCN(CCCNC(=O)[C@@H](C)c2ccccc2)CC1 [Example 161, 2-methyl-N-{4-methyl-3-[1-(3-{[(2S)-2-phenylpropanoyl]amino}propyl)-4-piperidinyl]phenyl} propanamide]	24.4 nM
CC(=O)Nc1cccc(C2CCN(CCCNC(=O)C3(c4ccc(F)cc4)CCCC3)CC2)c1 [Example 72, N-(3-{4-[3-(ACETYLAMINO)PHENYL]-1-PIPERIDINYL}PROPYL)-1-(4-FLUOROPHENYL) CYCLOPENTANECARBOXAMIDE]	52.3 nM
CC(C)OC(=O)Nc1cccc(C2CCN(CCCNC(=O)C3(c4ccc(F)cc4Cl)CCCCC3)CC2)c1 [Example 147, ISOPROPYL 3-{1-[3-({[1-(2-CHLORO-4-FLUOROPHENYL)CYCLOHEXYL]CARBONYL} AMINO)PROPYL]-4-PIPERIDINYL}PHENYLCARBAMATE]	42 nM
CCC(=O)Nc1cccc(C2CCN(CCCNC(=O)C3(c4ccc(Cl)cc4)CC3)CC2)c1 [Example 63, 1-(4-CHLOROPHENYL-N-(3-{4-[3-(PROPIONYLAMINO)PHENYL]-1-PIPERIDINYL} PROPYL)CYCLOPROPANECARBOXAMIDE]	150 nM
Cc1ccc(C(C(=O)NCCCN2CCC(c3cccc(NC(=O)C4CC4)c3)CC2)c2ccc(C)cc2)cc1 [Example 111, N-{3-[1-(3-{[2,2-BIS(4-METHYLPHENYL)ACETYL]AMINO}PROPYL)-4-PIPERIDINYL] PHENYL}CYCLOPROPANECARBOXAMIDE]	1.2 nM
Cc1ccc(NC(=O)C(C)C)cc1C1CCN(CCCNC(=O)Cc2ccc(F)cc2)CC1 [Example 175, N-{3-[1-(3-{[(4-fluorophenyl)acetyl]amino}propyl)-4-piperidinyl]-4-methylphenyl}-2-methyl propanamide]	24.7 nM
